Source: patent US12264156B2, “Compounds and pharmaceutical compositions thereof for the treatment of diseases” (GALAPAGOS NV, priority 2018, dated 2025)

Legend:
SIK3 = target: T1, SIK3 (Homo sapiens, UniProt Q9Y2K2); assay: ADP-Glo kinase assay, SIK3; assay type: biochemical; settings: ADP-Glo SIK kinase assay
T1 construct: purchased SignalChem S12-11G-100
Procedure, shortened: (§1)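 ADP-Glo, RT throughout. Enz/substrate + ATP, 120 min; ADP-Glo reagent 40 min (ATP depletion); detection reagent 30 min; luminescence read. Neg ctrl 1% DMSO, pos ctrl 10 μM staurosporine, final concs.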

[1] = system: LPS triggered IL-10 secretion in monocytes; assay: Monocytes assay: LPS-triggered IL-10 (ELISA); assay type: cell-based, human; settings: LPS 200 ng/mL, supernatant after 4 h, maximal fold change vs LPS only
Description: (§2) SIK inhibition inhibits TNFα and increases IL-10 release in LPS triggered monocyte-derived macrophages (MdM) and dendritic cells (MdDCs) (Clark et al. 2012; Sundberg et al. 2014; Ozanne et al. 2015). This assay evaluates illustrative compounds of the invention for their inhibition of LPS-induced TNFα and LPS triggered IL-10 secretion in monocytes.
(§3) PBMCs are isolated from human blood samples (buffycoats). The buffy coat is aseptically transferred into a 50 mL Falcon tube, and diluted 1/2 in PBS. Falcon tubes are filled with 20 mL Lymphoprep™, on top of which 25 mL of the buffy coat is carefully added, tubes are centrifuged for 35 min at 400 g in temperature controlled centrifuge, without brake, at 25° C. PBMCs are aspirated from the white interface layer between sample and Lymphoprep™. PBMCs are washed five times in PBS. Cells are resuspended in RPMI 1640 complete medium supplemented with 10% FBS, 1% P/S, and cell density is determined using a hematologic analyzer (Sysmex XS-500i).
(§4) PBMCs are centrifuged at 300×g for 10 min and resuspended at a density of 1.0*10^7 cells/80 μL Miltenyi buffer (PBS, pH 7.4, 1% FBS, 2 mM EDTA).
(§5) Starting from this point of the protocol all steps are performed on ice. 20 μL of CD14+ micro-beads are added per 1.0*10^7 cells, the tube is mixed and incubated for 15 min in the fridge at 4° C. Cell suspension volume is adjusted to total volume of 100 mL using Miltenyi buffer, mixed gently and subsequently centrifuged for 10 min at 300×g. Supernantant is discarded and cell pellet is resuspended in 12 mL of Miltenyi buffer.
(§6) Four LS columns are placed in the MACS Separator (magnet) from Miltenyi Biotec, and are prewet by rinsing with 3 mL of MACS buffer per column. Three mL of cell suspension is added onto the column (max 1*10^8 of labelled cells/column), and columns are subsequently washed 3 times with 3 mL of Miltenyi buffer.
(§7) The columns are removed from the magnets, and 5 mL of Miltenyi buffer are added to the column to flush out the CD14+ fraction by pushing the plunger into the column. The flushed fractions are collected in a fresh 50 mL Falcon and volume is adjusted to 30 mL using Miltenyi buffer, cells are centrifuged for 10 min at 300×g. The obtained cell pellet is resuspended in 10 mL RPMI w/o FBS, and cell density is determined using a hematologic analyser (Sysmex XS-500i). 100 000 cells are seeded in 80 μL per well of a 96-well plate in RPMI 1640 medium supplemented with 10% FBS, 1% P/S.
(§8) A compound dilution plate is made in 100% DMSO by 3-fold dilution of 10 mM stock solution. An intermediate dilution plate (10× final concentration) is made by diluting the compound dilution plate 50-fold in RPMI medium.
(§9) 10 μL of the 10× final concentration compound is added to the cells and incubated for 1 h at 37° C. before addition of trigger. No trigger conditions/trigger conditions are spiked with equal final DMSO concentrations of 0.2% DMSO. 10 μL of 10×LPS (final conc. 200 ng/mL) solution are added to all wells except for the ‘no trigger wells’ where 10 μL medium is added. Supernatant is collected after 4 h of LPS triggering.
A Lumitrac 600 Greiner 384-well plate is coated with 40 μL of capture antibody (final concentration of 1 μg/mL in 1×PBS) and stored overnight at 4° C. The next day the plate is washed three times with PBST (PBS+0.05% Tween20) and once with PBS followed by the addition of 100 μL of blocking buffer (1% BSA−5% Sucrose) and plates are sealed and incubated for at least 4 h at RT. After washing the plate once with PBST and once with PBS, 40 μL of standard or sample are added (IL-10 standard curve is prepared using a 1/2 serial dilution starting from […]; dilutions are made in dilution buffer (PBS+1% BSA)). Plates are washed twice with PBST, and once with PBS, after which 35 μL of the detection antibody is added (final concentration 0.143 μg/mL diluted in dilution buffer) and plates are incubated for at least 2 h at RT. […]

[2] = system: LPS-induced TNFα in monocytes; assay: Monocytes assay: LPS-triggered TNFα (ELISA); assay type: cell-based, human; settings: Homo sapiens, Monocyte, LPS 200 ng/mL, supernatant after 4 h
Description: as §2, §3, §4, §5, §6, §7, §8, §9
A Lumitrac 600 Greiner 384-well plate is coated with 40 μL of capture antibody (BD Pharmingen, Cat #551220) reaching a final concentration of 1 μg/mL in 1×PBS and stored overnight at 4° C.
The plate is then washed once with PBST (PBS+0.05% Tween20) and once with PBS followed by the addition of 100 μL of blocking buffer (1% Bovine Serum Albumin (BSA)−5% Sucrose) and plates are sealed and incubated for at least 4 h at RT. After washing the plate once with PBST and once with PBS, […]. Plates are washed twice with PBST, and once with PBS, after which 35 μL of the detection antibody is added (final concentration 0.25 μg/mL diluted in dilution buffer) and plates are incubated for at least 2 h at RT. […]

SIK2 = target: T2, SIK2 (Homo sapiens, UniProt Q9H0K1); assay: ADP-Glo kinase assay, SIK2; assay type: biochemical; settings: ADP-Glo SIK kinase assay
T2 construct: purchased ThermoFisher Scientific PV4792
Procedure, shortened: as §1

SIK1 = target: T3, SIK1 (Homo sapiens, UniProt P57059); assay: ADP-Glo kinase assay, SIK1; assay type: biochemical; settings: ADP-Glo SIK kinase assay
T3 construct: purchased Carna Biosciences 02-131
Procedure, shortened: as §1

T1 sequence (Q9Y2K2 whole entry): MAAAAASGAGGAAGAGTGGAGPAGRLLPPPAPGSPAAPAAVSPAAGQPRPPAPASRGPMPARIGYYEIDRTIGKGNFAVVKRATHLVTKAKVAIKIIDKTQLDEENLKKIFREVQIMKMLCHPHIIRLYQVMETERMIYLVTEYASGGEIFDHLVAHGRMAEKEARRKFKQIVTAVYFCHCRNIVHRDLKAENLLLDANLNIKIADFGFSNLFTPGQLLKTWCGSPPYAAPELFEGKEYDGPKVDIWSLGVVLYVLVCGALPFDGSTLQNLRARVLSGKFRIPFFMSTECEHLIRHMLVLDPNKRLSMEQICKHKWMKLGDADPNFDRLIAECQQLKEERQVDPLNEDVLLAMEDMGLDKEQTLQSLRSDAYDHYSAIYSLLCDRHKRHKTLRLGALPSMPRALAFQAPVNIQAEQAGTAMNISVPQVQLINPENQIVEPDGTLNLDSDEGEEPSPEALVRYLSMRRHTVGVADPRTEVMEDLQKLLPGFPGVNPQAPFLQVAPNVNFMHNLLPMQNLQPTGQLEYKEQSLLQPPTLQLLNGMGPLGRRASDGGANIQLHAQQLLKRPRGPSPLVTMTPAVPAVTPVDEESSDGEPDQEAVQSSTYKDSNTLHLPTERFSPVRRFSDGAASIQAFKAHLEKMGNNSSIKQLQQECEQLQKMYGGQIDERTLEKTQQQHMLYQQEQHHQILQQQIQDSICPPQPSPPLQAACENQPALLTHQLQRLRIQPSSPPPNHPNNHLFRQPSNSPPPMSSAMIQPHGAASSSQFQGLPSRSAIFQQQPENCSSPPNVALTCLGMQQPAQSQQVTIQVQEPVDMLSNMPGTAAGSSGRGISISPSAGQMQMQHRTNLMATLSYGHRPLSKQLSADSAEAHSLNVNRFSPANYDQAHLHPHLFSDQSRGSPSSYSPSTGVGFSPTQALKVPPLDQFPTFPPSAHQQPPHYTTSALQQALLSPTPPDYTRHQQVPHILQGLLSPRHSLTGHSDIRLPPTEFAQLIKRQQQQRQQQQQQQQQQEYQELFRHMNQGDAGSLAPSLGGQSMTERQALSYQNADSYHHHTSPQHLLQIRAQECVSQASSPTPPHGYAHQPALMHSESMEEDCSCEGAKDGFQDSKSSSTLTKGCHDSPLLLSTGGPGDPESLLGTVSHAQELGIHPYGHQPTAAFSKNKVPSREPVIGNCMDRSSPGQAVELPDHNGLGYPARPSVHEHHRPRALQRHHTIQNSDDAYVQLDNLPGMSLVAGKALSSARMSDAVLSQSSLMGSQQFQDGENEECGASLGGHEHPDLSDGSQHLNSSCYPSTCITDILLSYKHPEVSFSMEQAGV
T3 sequence (P57059 whole entry): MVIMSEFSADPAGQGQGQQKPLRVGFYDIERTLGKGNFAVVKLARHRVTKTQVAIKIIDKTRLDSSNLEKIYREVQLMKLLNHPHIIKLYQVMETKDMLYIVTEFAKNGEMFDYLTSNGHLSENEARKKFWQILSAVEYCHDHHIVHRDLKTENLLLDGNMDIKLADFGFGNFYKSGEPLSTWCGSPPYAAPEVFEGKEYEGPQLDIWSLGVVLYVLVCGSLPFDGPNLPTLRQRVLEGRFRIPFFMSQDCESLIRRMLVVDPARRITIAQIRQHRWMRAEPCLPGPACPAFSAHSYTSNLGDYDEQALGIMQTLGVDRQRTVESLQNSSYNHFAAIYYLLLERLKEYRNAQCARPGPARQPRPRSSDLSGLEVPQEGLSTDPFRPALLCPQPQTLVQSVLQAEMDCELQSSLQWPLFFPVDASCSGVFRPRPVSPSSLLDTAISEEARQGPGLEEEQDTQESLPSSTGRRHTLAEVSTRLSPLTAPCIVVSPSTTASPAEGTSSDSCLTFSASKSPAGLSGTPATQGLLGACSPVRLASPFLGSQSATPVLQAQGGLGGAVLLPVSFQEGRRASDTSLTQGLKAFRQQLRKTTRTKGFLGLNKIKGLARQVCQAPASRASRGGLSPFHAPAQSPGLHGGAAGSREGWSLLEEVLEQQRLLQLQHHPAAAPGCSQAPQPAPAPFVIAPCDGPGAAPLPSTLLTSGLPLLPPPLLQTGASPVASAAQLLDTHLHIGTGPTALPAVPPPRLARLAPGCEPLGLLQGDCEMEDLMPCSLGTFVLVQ
T2 sequence (Q9H0K1 whole entry): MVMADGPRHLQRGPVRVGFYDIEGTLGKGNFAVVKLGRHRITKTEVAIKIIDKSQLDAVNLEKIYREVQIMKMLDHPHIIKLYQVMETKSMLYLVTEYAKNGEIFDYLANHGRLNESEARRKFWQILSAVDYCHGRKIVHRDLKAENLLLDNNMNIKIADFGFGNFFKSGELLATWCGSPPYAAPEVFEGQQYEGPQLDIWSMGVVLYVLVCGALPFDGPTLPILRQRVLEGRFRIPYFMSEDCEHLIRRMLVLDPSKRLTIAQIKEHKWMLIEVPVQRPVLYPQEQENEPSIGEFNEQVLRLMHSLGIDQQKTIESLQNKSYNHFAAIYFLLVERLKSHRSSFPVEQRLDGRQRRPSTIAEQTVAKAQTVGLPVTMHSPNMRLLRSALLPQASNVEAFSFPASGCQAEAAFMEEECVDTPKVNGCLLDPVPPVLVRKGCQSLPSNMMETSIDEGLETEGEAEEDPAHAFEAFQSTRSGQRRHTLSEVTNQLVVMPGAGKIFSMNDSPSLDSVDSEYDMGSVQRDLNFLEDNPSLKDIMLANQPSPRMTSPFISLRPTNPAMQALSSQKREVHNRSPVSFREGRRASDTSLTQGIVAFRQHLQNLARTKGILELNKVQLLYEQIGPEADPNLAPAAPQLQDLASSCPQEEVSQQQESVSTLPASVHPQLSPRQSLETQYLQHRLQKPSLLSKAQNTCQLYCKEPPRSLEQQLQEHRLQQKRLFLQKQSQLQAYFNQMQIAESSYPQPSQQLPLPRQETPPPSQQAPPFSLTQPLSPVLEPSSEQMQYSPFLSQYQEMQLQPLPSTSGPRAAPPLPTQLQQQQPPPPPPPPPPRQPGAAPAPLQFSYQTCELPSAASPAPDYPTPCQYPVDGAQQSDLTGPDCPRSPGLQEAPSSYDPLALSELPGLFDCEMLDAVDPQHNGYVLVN

SMILES	IC50 (SIK3)	EC50 ([2]; 4 h)	IC50 (SIK2)	IC50 (SIK1)	IL-10 FCmax median [1]	EC50 [2]
COc1cc(-c2cnc3cc(OCCNC(=O)C(F)F)ccn23)cc(OC(F)F)c1C(=O)NC1CC1 [Cpd 371, N-cyclopropyl-4-[7-[2-[(2,2-difluoroacetyl)amino]ethoxy]imidazo[1,2-a]pyridin-3-yl]-2-(difluoromethoxy)-6-methoxy-benzamide]	0.01 to 10 nM	100 to 1000 nM	0.01 to 10 nM	0.01 to 10 nM	++ (>1.5-4.5)	
CCOC(=O)CN1[C@@H]2CC[C@H]1CC(Oc1ccn3c(-c4cc(OC)c(C(=O)NC5CC5)c(OC(F)F)c4)cnc3c1)C2 (stereo partly drawn) [compound 272, ethyl 2-[(1R,5S)-3-[3-[4-(cyclopropylcarbamoyl)-3-(difluoromethoxy)-5-methoxy-phenyl]imidazo[1,2-a]pyridin-7-yl]oxy-8-azabicyclo[3.2.1]octan-8-yl]acetate]	10 to 100 nM		10 to 100 nM	100 to 500 nM	+++ (>4.5)	0.1 to 100 nM
COc1cc(-c2cnc3cc(OCC4CCCN(C(C)C)C4)ccn23)cc(OC(F)F)c1C(=O)NC1CC1 (centres unmarked) [compound 280, N-cyclopropyl-2-(difluoromethoxy)-4-[7-[(1-isopropyl-3-piperidyl)methoxy]imidazo [1,2-a]pyridin-3-yl]-6-methoxy-benzamide]	0.01 to 10 nM	0.1 to 100 nM	0.01 to 10 nM	0.01 to 10 nM	++ (>1.5-4.5)	
COc1cc(-c2cnc3cc(OCC4COCCN4C(C)C)ccn23)cc(OC(F)F)c1C(=O)NC1CC1 (centres unmarked) [compound 283, N-cyclopropyl-2-(difluoromethoxy)-4-[7-[(4-isopropylmorpholin-3-yl)methoxy]imidazo[1,2-a]pyridin-3-yl]-6-methoxy-benzamide]	0.01 to 10 nM	100 to 1000 nM	10 to 100 nM	10 to 100 nM	+++ (>4.5)	
COc1cc(-c2cnc3cc(OCCCN4C5CCC4COC5)ccn23)cc(OC(F)F)c1C(=O)NC1CC1 [compound 292, N-cyclopropyl-2-(difluoromethoxy)-6-methoxy-4-[7-[3-(3-oxa-8-azabicyclo[3.2.1]octan-8-yl)propoxy]imidazo[1,2-a]pyridin-3-yl]benzamide]	0.01 to 10 nM		0.01 to 10 nM	10 to 100 nM	+++ (>4.5)	0.1 to 100 nM
COc1cc(-c2cnc3cc(OCCOCCN4CCN(C(C)C)CC4)ccn23)cc(OC(F)F)c1C(=O)NC1CC1 [compound 298, N-cyclopropyl-2-(difluoromethoxy)-4-[7-[2-[2-(4-isopropylpiperazin-1-yl)ethoxy]ethoxy]imidazo [1,2-a]pyridin-3-yl]-6-methoxy-benzamide]	0.01 to 10 nM	100 to 1000 nM	0.01 to 10 nM	10 to 100 nM	+++ (>4.5)	

The next lines start with results.

IC50 (SIK3)	EC50 ([2]; 4 h)	IC50 (SIK2)	IC50 (SIK1)	SMILES	IL-10 FCmax median [1]	EC50 [2]
0.01 to 10 nM	0.1 to 100 nM	0.01 to 10 nM	10 to 100 nM	COc1cc(-c2cnc3cc(OCCCN4CCC(O)CC4)ccn23)cc(OC(F)F)c1C(=O)NC1CC1 [compound 277, N-cyclopropyl-2-(difluoromethoxy)-4-[7-[3-(4-hydroxy-1-piperidyl)propoxy]imidazo [1,2-a]pyridin-3-yl]-6-methoxy-benzamide]	+++ (>4.5)	
0.01 to 10 nM	0.1 to 100 nM	0.01 to 10 nM	0.01 to 10 nM	COc1cc(-c2cnc3cc(OCCCN4CCOCC45CCC5)ccn23)cc(OC(F)F)c1C(=O)NC1CC1 [compound 281, N-cyclopropyl-2-(difluoromethoxy)-6-methoxy-4-[7-[3-(8-oxa-5-azaspiro[3.5]nonan-5-yl)propoxy]imidazo[1,2-a]pyridin-3-yl]benzamide]	+++ (>4.5)	
0.01 to 10 nM	0.1 to 100 nM	0.01 to 10 nM	0.01 to 10 nM	COc1cc(-c2cnc3cc(OCCCN4CC5CC4CO5)ccn23)cc(OC(F)F)c1C(=O)NC1CC1 (centres unmarked) [compound 284, N-cyclopropyl-2-(difluoromethoxy)-6-methoxy-4-[7-[3-(2-oxa-5-azabicyclo[2.2.1]heptan-5-yl)propoxy]imidazo[1,2-a]pyridin-3-yl]benzamide]	++ (>1.5-4.5)	
0.01 to 10 nM	100 to 1000 nM	0.01 to 10 nM	10 to 100 nM	COc1cc(-c2cnc3cc(OCCCN4CCC5(COC5)C4)ccn23)cc(OC(F)F)c1C(=O)NC1CC1 [compound 285, N-cyclopropyl-2-(difluoromethoxy)-6-methoxy-4-[7-[3-(2-oxa-7-azaspiro[3.4]octan-7-yl)propoxy]imidazo[1,2-a]pyridin-3-yl]benzamide]	+++ (>4.5)	
0.01 to 10 nM	0.1 to 100 nM	0.01 to 10 nM	10 to 100 nM	COc1cc(-c2cnc3cc(OCCCN4C(C)CCCC4C)ccn23)cc(OC(F)F)c1C(=O)NC1CC1 (centres unmarked) [compound 290, N-cyclopropyl-2-(difluoromethoxy)-4-[7-[3-(2,6-dimethyl-1-piperidyl)propoxy]imidazo [1,2-a]pyridin-3-yl]-6-methoxy-benzamide]	+++ (>4.5)	
0.01 to 10 nM	0.1 to 100 nM	0.01 to 10 nM	10 to 100 nM	COc1cc(-c2cnc3cc(OCCCN4CC5CCC(C4)O5)ccn23)cc(OC(F)F)c1C(=O)NC1CC1 [compound 291, N-cyclopropyl-2-(difluoromethoxy)-6-methoxy-4-[7-[3-(8-oxa-3-azabicyclo[3.2.1]octan-3-yl)propoxy]imidazo[1,2-a]pyridin-3-yl]benzamide]	+++ (>4.5)	
0.01 to 10 nM	0.1 to 100 nM	0.01 to 10 nM	10 to 100 nM	COc1cc(-c2cnc3cc(OCCCN4CC5(CCC5)C4)ccn23)cc(OC(F)F)c1C(=O)NC1CC1 [compound 293, 4-[7-[3-(2-azaspiro[3.3]heptan-2-yl)propoxy]imidazo[1,2-a]pyridin-3-yl]-N-cyclopropyl-2-(difluoromethoxy)-6-methoxy-benzamide]	+++ (>4.5)	
